The test relates to MDA-MB-468 breast. Nature of the test: inhibition of tumour cell growth, NCI panel, 48 h.

This note sets out measurements from PubChem BioAssay (NCI).

Molecules are shown by their SMILES.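 The compound was tested at five concentrations on cells cultured in 96-well plates, with a 48-hour exposure period. GI50 is the concentration that inhibits growth by half. TGI is the concentration that stops growth completely.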

As to `COc1cccc(NCc2nnc(Nc3ccc(Cl)cc3)c3ccccc23)c1`, the GI50 is 1050 nM and the TGI is 4730 nM. Take `Cc1cc(C2CCCCC2)n(O)c(=O)c1`: the GI50 was 1720 nM and the TGI worked out at 8960 nM. The corresponding values for `COc1ccc(C2CC(=O)c3c(O)c(OC)c(OC)c(OC)c3O2)c(O)c1` (centres undefined) are 83.1 nM and 36900 nM. Take `Cn1cc(C2=C(c3cn(C)c4c(N)cccc34)C(=O)NC2=O)c2ccccc21`: the GI50 is 1280 nM and the TGI is over 25000 nM. The corresponding values for `C=C1C(=O)O[C@H]2[C@H]1CC/C(COC(=O)/C=C\C(=O)NCc1ccc(Cn3c(=O)sn(-c4ccc(C#N)cc4)c3=O)cc1)=C\CC[C@@]1(C)O[C@@H]21` are 735 nM and 1670 nM. Turning to `COc1cc(-c2c(C#N)c(N)n3c(nc4ccccc43)c2C#N)cc(Br)c1OC`, the GI50 was 5540 nM and the TGI was over 100000 nM. Turning to `CCOC(=O)/C(O)=C(/C=NC(=S)c1ccncc1)C(=O)OCC`, the GI50 was over 100000 nM and the TGI is over 100000 nM. Take `COc1ccc(-c2nc(-c3nc4ccc(C)cc4[nH]3)c3ccccn23)cc1`: the GI50 is 2320 nM and the TGI stood at 7130 nM. For `Cc1[nH]c(N=Nc2ccccc2)nc1N=Nc1ccccc1`, the GI50 is 1920 nM and the TGI was found to be 5990 nM. Consider `O=C(CCCSc1nc(-c2ccc(Cl)cc2)cc(-c2ccc(Cl)cc2)n1)NO`, for which the GI50 was 1420 nM and the TGI was 3480 nM. The corresponding values for `Cn1cc(C2=C(c3cn(CCCN=C(N)N)c4ccccc34)C(=O)NC2=O)c2ccccc21` are over 11200 nM and over 25000 nM. For `COc1ccc(-c2cc3c(nn2)-c2ccccc2C3=O)cc1`, the GI50 is over 100000 nM and the TGI was over 100000 nM.

Regarding `C[C@]12CC[C@@H]3c4ccc(Oc5nc(N6CC6)nc(N6CC6)n5)cc4CC[C@H]3[C@@H]1CCC2=O`, the GI50 was 2000 nM and the TGI stood at 12600 nM. For `CC[C@H](C)[C@H](NC(=O)[C@H]1CCCCN1C)C(=O)N(C)[C@H](CCc1nc(C(=O)N[C@@H](Cc2ccccc2)C[C@H](C)C(=O)OC)cs1)C(C)C`, the GI50 was 69.6 nM. As to `CCCNC(=S)N/N=C(\C)c1ccccn1`, the GI50 was under 10 nM and the TGI is 109 nM.

`COC(=O)[C@]12CCC(C)(C)C[C@H]1C1=CC[C@@H]3[C@@]4(C)C/C(=C/c5cccnc5)C(=O)C(C)(C)[C@@H]4CC[C@@]3(C)[C@]1(C)CC2`: the GI50 was 12300 nM and the TGI stood at 47200 nM. Turning to `COc1ccc(OC(=O)O[C@H]2[C@H](O[C@H]3[C@@H](O)COC(O[C@H]4C[C@H]5[C@@H]6CC=C7C[C@@H](O)CC[C@]7(C)[C@H]6CC[C@]5(C)[C@H]4[C@H](C)C(=O)CCC(C)C)[C@@H]3OC(C)=O)OC[C@@H](O)[C@@H]2O)cc1` (some centres undefined), the GI50 was 37.3 nM and the TGI was 4940 nM.

Turning to `CCCCNC(=O)NS(=O)(=O)c1ccc(N2N=C(c3ccc(C)cc3C)CC2c2ccc(N(C)C)cc2)cc1` (centres undefined), the GI50 was 2220 nM and the TGI amounted to 5820 nM.

On to `C[C@]12CC[C@@H]3c4ccc(O)cc4C[C@@H](CCCCCCCCCS(=O)CCCC(F)(F)C(F)(F)F)[C@H]3[C@@H]1CC[C@@H]2O` (some centres undefined), for which the GI50 was over 100000 nM and the TGI is over 100000 nM. `O=C(C[C@@H](C(=O)NCc1cccc(C(F)(F)F)c1)N1C(=O)[C@@H](N2C(=O)OC[C@@H]2c2ccccc2)[C@H]1/C=C/c1ccccc1)NC1CCN(Cc2ccccc2)CC1`: the GI50 is 2660 nM and the TGI came to 18400 nM. As to `Cn1cc(-c2csc(-c3cccc(F)c3)n2)c2cccnc21`, the GI50 is 20000 nM and the TGI came to 55600 nM. Turning to `NC(N)=NC(N)=Nc1cc2ccccc2c2ccccc12`, the GI50 is 2810 nM and the TGI was determined as 14300 nM.

`CN1C(=O)N(c2ccccc2)C2N=C(N/N=C/c3ccccc3)SC21` (centres undefined): the GI50 is 510 nM and the TGI was over 100000 nM. The matching figures for `Cc1cc(C)cc(Nc2cc(C)nc3nc(C(F)(F)F)nn23)c1`: 8300 nM and over 100000 nM. As for `CC(C)CSc1nc(Nc2ccccc2)c(C#N)c(-c2ccc(F)cc2)n1`, the GI50 is 3070 nM and the TGI was 17400 nM. For the compound `COc1cc([C@@H]2c3cc4c(cc3C(O[C@@H]3O[C@@H]5CO[C@@H](c6cccs6)OC5[C@H](O)[C@H]3O)C3COC(=O)[C@@H]32)OCO4)cc(OC)c1O` (some centres undefined), the GI50 was 91.4 nM and the TGI came out at 302 nM.

Turning to `Nc1nccc(-c2c(-c3ccc(F)cc3)ncn2CCCN2CCOCC2)n1`, the GI50 is over 6390 nM and the TGI is over 25000 nM.

For `COc1ccc(-n2c(SCc3cc(OC)c(OC)c(OC)c3)nc3ccc(C)cc3c2=O)cc1`, the GI50 was 3390 nM and the TGI was 48300 nM. Turning to `COc1cc(Cn2c(-c3ccccc3)cc3c2-c2oncc2CC3)cc(OC)c1OC`, the GI50 was 298 nM and the TGI was 2210 nM. Consider `COc1ccc(S(=O)(=O)N(Cc2ccc3c(n2)C=CC(C)(C)O3)C2CCC2)cc1OC`, for which the GI50 was under 10 nM and the TGI is under 10 nM. Turning to `C[C@]12CC[C@@H]3c4ccc(O)cc4CC[C@H]3[C@@H]1CC[C@@H]2NS(=O)(=O)c1ccc(C(F)(F)F)cc1`, the GI50 is 2180 nM and the TGI is 6230 nM. For the compound `CCCCC/C=C/C/C=C/CCCCCCCC1=NC(C)(C)CN1C(C)C`, the GI50 was 1370 nM and the TGI came out at 2720 nM. Take `COc1ccc(C(=O)/C=C/c2cccnc2Nc2cc(OC)c(OC)c(OC)c2)cc1`: the GI50 is 551 nM and the TGI turned out to be 2760 nM. As for `CC12CCCC(CC(=O)c3[nH]c4ccccc4c31)C2` (centres undefined), the GI50 is 375 nM and the TGI turned out to be 4160 nM. As to `CN(C)CCNc1ccc2ncc(C#Cc3cncc(C(=O)Nc4ccc(CN5CCN(C)CC5)c(C(F)(F)F)c4)c3)n2n1`, the GI50 was 617 nM and the TGI is 1410 nM.
